Patent US4341784A, “Naphthyridine derivatives” (priority 1979, dated 1982)
Where two headings read alike, the source gives them in different places.

Tests used:
[1] = system: Staphylococcus aureus No. 50774; assay: In vivo efficacy against systemic infections in mice (intravenous infection); design: species or system male mice (ddY); conditions: NO.50774, 336 h, po, twice, about 5 minutes and 6 hours after intravenous infection, observed 14 days
Method: (§1) Each of the solutions was orally administered to mice infected with each of test organisms under the conditions described below, and the medium effective doses (ED50) obtained are shown in Table II. Male mice (ddY) weighing about 20 g (1) Staphylococcus aureus No. 50774: Intravenous infection with about 5×10^8 cells per mouse suspended in saline. Twice, about 5 minutes and 6 hours after infection. |Staphylococcus aureus No. 50774 | for 14 days | The numerals in the table show ED50 (mg/kg). ED50 values were | calculated in accordance with the BehrensKaerber method (Arch. Exp. Path. | Pharm., 162, 480 (1931)). | po: oral administration.

[2] = system: Gram-positive and Gram-negative bacteria including Pseudomonas aeruginosa; assay: In vivo efficacy against systemic infections, overall; design: species or system male mice (ddY); conditions: for therapeutic effect on systemic infections (in words): Gram-positive and Gram-negative bacteria; for therapeutic effect compared with Compound C (in words): systemic infections with Gram-negative bacteria including Pseudomonas aeruginosa
Method: Compounds 1, 2 and C were each dissolved in deionized water or suspended in a 0.2% aqueous solution of CMC. Each of the solutions was orally administered to mice infected with each of test organisms under the conditions described below, and the medium effective doses (ED50) obtained are shown in Table II.
Male mice (ddY) weighing about 20 g
Twice, about 5 minutes and 6 hours after infection.

Escherichia coli P-5101 [3] = assay: In vivo efficacy against systemic infections in mice (intraperitoneal infection); design: species or system male mice (ddY); conditions: P5101, 168 h, po, twice, about 5 minutes and 6 hours after intraperitoneal infection, observed 7 days
Method: as §1, with “(3) Escherichia coli P-5101: Intraperitoneal” for “(1) Staphylococcus aureus No. 50774: Intravenous”, “9×10^6” for “5×10^8”, “trypto-soy broth with 4% mucin.” for “saline.”, “|Escherichia coli P-5101” for “|Staphylococcus aureus No. 50774 |”, “7” for “14”

[4] = system: Staphylococcus aureus No. 50774; assay: In vitro antibacterial activity (MIC, agar dilution method); type: cell-based; conditions: Staphylococcus aureus No. 50774; agar dilution; read-out: minimum inhibitory concentration (MIC)
Method: (§2) The minimum inhibitory concentrations (MIC, μg/ml) of the following compounds in vitro were measured by the agar dilution method of [Chemotherapy, Vol. 22, No. 16, page 1126 (1974)].

[5] = system: Staphylococcus aureus Smith; assay: as above; type: cell-based; conditions: Staphylococcus aureus Smith; agar dilution; read-out: minimum inhibitory concentration (MIC)
Method: as §2

[6] = system: Staphylococcus aureus No. 80; assay: as above; type: cell-based
Method: as §2

[7] = system: Enterobacter cloacae P-2540; assay: as above; type: cell-based; conditions: P2540; Enterobacter cloacae P-2540; agar dilution; read-out: minimum inhibitory concentration (MIC)
Method: as §2

[8] = system: Klebsiella pneumoniae No. 13; assay: as above; type: cell-based; conditions: Klebsiella pneumoniae No. 13; agar dilution; read-out: minimum inhibitory concentration (MIC)
Method: as §2

Proteus mirabilis P-2381 = assay: as above; type: cell-based; conditions: P2381; Proteus mirabilis P-2381; agar dilution; read-out: minimum inhibitory concentration (MIC)
Method: as §2

[9] = system: Pseudomonas aeruginosa No. 12; assay: as above; type: cell-based; conditions: Pseudomonas aeruginosa No. 12; agar dilution; read-out: minimum inhibitory concentration (MIC)
Method: as §2

Escherichia coli P-5101 [10] = assay: as above; type: cell-based; conditions: P5101; Escherichia coli P-5101; agar dilution; read-out: minimum inhibitory concentration (MIC)
Method: as §2

[11] = system: Staphylococcus aureus 209P JC-1; assay: as above; type: cell-based; conditions: Staphylococcus aureus 209P JC-1; agar dilution; read-out: minimum inhibitory concentration (MIC)
Method: as §2

[12] = system: Salmonella enteritidis No. 1891; assay: as above; type: cell-based; conditions: Salmonella enterica; Salmonella enteritidis No. 1891; agar dilution; read-out: minimum inhibitory concentration (MIC)
Method: as §2

Escherichia coli P-140a = assay: as above; type: cell-based; conditions: P140A; Escherichia coli P-140a; agar dilution; read-out: minimum inhibitory concentration (MIC)
Method: as §2

[13] = system: Shigella flexneri 4a P-330; assay: as above; type: cell-based; conditions: 4AP330, read-out: minimum inhibitory concentration (MIC)
Method: as §2

Shigella flexneri 2a = assay: as above; type: cell-based; conditions: read-out: minimum inhibitory concentration (MIC)
Method: as §2

[14] = system: Escherichia coli NIHJ JC-2; assay: as above; type: cell-based
Method: as §2

[15] = system: Staphylococcus epidermidis No. 8; assay: as above; type: cell-based; conditions: Staphylococcus epidermidis No. 8; agar dilution; read-out: minimum inhibitory concentration (MIC)
Method: as §2

[16] = system: Streptococcus faecalis P-2473; assay: as above; type: cell-based; conditions: Enterococcus faecalis, P2473; Streptococcus faecalis P-2473; agar dilution; read-out: minimum inhibitory concentration (MIC)
Method: as §2

[17] = system: Salmonella typhimurium S-9; assay: as above; type: cell-based; conditions: Salmonella enterica; Salmonella typhimurium S-9; agar dilution; read-out: minimum inhibitory concentration (MIC)
Method: as §2

Proteus morganii Kono = assay: as above; type: cell-based; conditions: Morganella morganii; Proteus morganii Kono; agar dilution; read-out: minimum inhibitory concentration (MIC)
Method: as §2

[18] = system: Serratia marcescens IFO 3736; assay: as above; type: cell-based; conditions: IFO3736; Serratia marcescens IFO 3736; agar dilution; read-out: minimum inhibitory concentration (MIC)
Method: as §2

[19] = system: Pseudomonas aeruginosa Tsuchiijima; assay: as above; type: cell-based; conditions: Pseudomonas aeruginosa Tsuchiijima; agar dilution; read-out: minimum inhibitory concentration (MIC)
Method: as §2

[20] = system: Streptococcus pyogenes 65A; assay: as above; type: cell-based; conditions: Streptococcus pyogenes 65A; agar dilution; read-out: minimum inhibitory concentration (MIC)
Method: as §2

[21] = system: Corynebacterium pyogenes C-21; assay: as above; type: cell-based; conditions: C21; Corynebacterium pyogenes C-21; agar dilution; read-out: minimum inhibitory concentration (MIC)
Method: as §2

Row | Structure (SMILES) | ED50 [1] [mg/kg] | therapeutic effect on systemic infections (in words) [2] | therapeutic effect compared with Compound C (in words) [2] | ED50 (Escherichia coli P-5101 [3]) [mg/kg] | MIC [4] [µg/mL] | MIC [5] [µg/mL] | MIC [7] [µg/mL] | MIC [8] [µg/mL] | MIC (Proteus mirabilis P-2381) [µg/mL] | MIC [9] [µg/mL] | MIC (Escherichia coli P-5101 [10]) [µg/mL] | MIC [11] [µg/mL] | MIC [12] [µg/mL] | MIC (Escherichia coli P-140a) [µg/mL] | MIC [13] [µg/mL] | MIC (Shigella flexneri 2a) [µg/mL] | MIC [15] [µg/mL] | MIC [16] [µg/mL] | MIC [17] [µg/mL] | MIC (Proteus morganii Kono) [µg/mL] | further results
1 | CCn1cc(C(=O)O)c(=O)c2cc(F)c(N3CCC(NC)C3)nc21.Cl (stereo not shown) [Compound 2, 1-Ethyl-6-fluoro-1,4-dihydro-7-(3-methylamino-1-pyrrolidinyl)-4-oxo-1,8-naphthyridine-3-carboxylic acid hydrochloride] | 4.8 | potent therapeutic effects | better therapeutic effects | 1.4 | 0.78 | 0.78 | 0.39 | 0.39 | 1.56 | 1.56 | 0.2 | 0.78 | 0.1 | 0.1 | 0.1 | 0.2 | 0.39 | 6.25 | 0.2 | 0.39 | MIC ([6]; Staphylococcus aureus No. 80, agar dilution, read-out: minimum inhibitory concentration (MIC)): 0.78 µg/mL; MIC ([14]; Escherichia coli, NIHJJC2, read-out: minimum inhibitory concentration (MIC)): 0.2 µg/mL; MIC [18]: 1.56 µg/mL; MIC [19]: 0.78 µg/mL; MIC [20]: 3.13 µg/mL; MIC [21]: 1.56 µg/mL
2 | CCn1cc(C(=O)O)c(=O)c2cc(F)c(N3CCC(N)C3)nc21.Cl (stereo not shown) [Compound 1, 7-(3-Amino-1-pyrrolidinyl)-1-ethyl-6-fluoro-1,4-dihydro-4-oxo-1,8-naphthyridine-3-carboxylic acid hydrochloride] | 3 | potent therapeutic effects | better therapeutic effects | 1.7 | 0.2 | 0.39 | < 0.05 | 0.2 | 0.39 | 0.78 | 0.1 | 0.2 | 0.1 | < 0.05 | 0.1 | 0.1 | 0.2 | 3.13 | 0.1 | 0.2 | MIC ([6]; Staphylococcus aureus, NO.80, read-out: minimum inhibitory concentration (MIC)): 0.39 µg/mL; MIC ([14]; NIHJJC2, Escherichia coli NIHJ JC-2, agar dilution, read-out: minimum inhibitory concentration (MIC)): 0.2 µg/mL; MIC [18]: 0.39 µg/mL; MIC [19]: 0.78 µg/mL; MIC [20]: 1.56 µg/mL; MIC [21]: 0.39 µg/mL
